The source of these data is ChEMBL document CHEMBL4411309, “Discovery of 2-substituted-N-(3-(3,4-dihydroisoquinolin-2(1H)-yl)-2-hydroxypropyl)-1,2,3,4-tetrahydroisoquinoline-6-carboxamide as potent and selective protein arginine methyltransferases 5 inhibitors: Design, synthesis and biological evaluation” (Eur J Med Chem, 2019).

Data set [1] deals with PRMT5/MEP50 complex (Homo sapiens, UniProt O14744). In words: Inhibition of recombinant human N-terminal FLAG-tagged PRMT5 (2 to end residues)/human N-terminal His-tagged MEP50 (2 to end residues) expressed in HEK293F cells using H4 peptide as substrate preincubated for 15 mins followed by substrate and [3H]SAM addition and measured after 1 hr by scintillation counting method.
Sequence of PRMT5/MEP50 complex (O14744 whole entry): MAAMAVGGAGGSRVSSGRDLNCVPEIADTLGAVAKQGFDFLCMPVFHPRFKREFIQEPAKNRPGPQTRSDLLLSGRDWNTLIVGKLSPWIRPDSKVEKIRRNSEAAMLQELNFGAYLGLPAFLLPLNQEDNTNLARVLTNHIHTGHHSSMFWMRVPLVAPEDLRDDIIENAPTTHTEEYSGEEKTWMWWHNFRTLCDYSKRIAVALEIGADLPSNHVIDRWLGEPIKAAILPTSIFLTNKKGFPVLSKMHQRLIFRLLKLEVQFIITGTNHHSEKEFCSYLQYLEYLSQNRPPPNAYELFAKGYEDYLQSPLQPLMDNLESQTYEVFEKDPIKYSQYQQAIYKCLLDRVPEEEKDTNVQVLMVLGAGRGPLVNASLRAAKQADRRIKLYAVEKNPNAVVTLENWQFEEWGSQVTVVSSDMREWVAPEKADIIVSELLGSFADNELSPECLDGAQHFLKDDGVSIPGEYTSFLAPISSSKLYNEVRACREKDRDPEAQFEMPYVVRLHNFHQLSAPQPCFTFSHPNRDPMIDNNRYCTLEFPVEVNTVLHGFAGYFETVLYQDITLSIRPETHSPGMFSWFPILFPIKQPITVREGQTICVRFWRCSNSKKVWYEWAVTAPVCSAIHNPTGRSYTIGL
Sequence of PRMT5/MEP50 complex (Q9BQA1 whole entry, further chain): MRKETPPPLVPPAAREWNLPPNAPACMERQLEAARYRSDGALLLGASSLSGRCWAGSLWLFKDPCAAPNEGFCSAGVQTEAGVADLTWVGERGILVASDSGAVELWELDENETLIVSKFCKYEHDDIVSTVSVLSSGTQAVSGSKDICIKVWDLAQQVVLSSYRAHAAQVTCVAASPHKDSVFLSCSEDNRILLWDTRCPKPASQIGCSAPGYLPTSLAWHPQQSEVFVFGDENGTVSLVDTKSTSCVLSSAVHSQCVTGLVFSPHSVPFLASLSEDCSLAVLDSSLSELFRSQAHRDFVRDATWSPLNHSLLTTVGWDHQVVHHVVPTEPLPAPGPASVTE

The test system of data set [2] is MV4-11. Put plainly: Antiproliferative activity against human MV4-11 cells supplemented with fresh medium containing compound every 4 days measured on day 8 by Celltiter-glo luminescent cell viability assay. The class given is functional.
In data set [3] the test system is MV4-11. In words: Antiproliferative activity against human MV4-11 cells supplemented with fresh medium containing compound every 4 days measured on day 12 by Celltiter-glo luminescent cell viability assay. The class given is functional. Background: In ATP-based viability assays light output follows the ATP content of the culture.
Data set [4] deals with Protein arginine N-methyltransferase 1 (Homo sapiens, UniProt Q99873). Put plainly: Inhibition of human N-terminal GST-tagged PRMT1 (2 to end residues) expressed in baculovirus infected Sf9 insect cells preincubated for 15 mins followed by substrate and [3H]SAM addition and measured after 1 hr by microbeta method.
Sequence of Protein arginine N-methyltransferase 1 (Q99873 whole entry): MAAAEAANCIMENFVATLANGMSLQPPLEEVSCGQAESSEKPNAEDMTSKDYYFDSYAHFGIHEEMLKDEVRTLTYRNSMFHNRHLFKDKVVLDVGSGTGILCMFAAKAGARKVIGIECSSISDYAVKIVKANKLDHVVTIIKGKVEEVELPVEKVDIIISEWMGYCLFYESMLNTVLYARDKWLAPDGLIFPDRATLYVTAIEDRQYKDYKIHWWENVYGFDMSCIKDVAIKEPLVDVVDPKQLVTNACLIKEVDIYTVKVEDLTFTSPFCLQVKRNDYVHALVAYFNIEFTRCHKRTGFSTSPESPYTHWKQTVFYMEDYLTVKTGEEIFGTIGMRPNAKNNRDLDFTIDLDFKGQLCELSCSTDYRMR
For data set [5], the target named is Protein arginine N-methyltransferase 3 (Homo sapiens, UniProt O60678). In words: Inhibition of human N-terminal GST-tagged PRMT3 (2 to end residues) expressed in Escherichia coli preincubated for 15 mins followed by substrate addition and measured after 1 hr by Alphalisa assay. For orientation: Bead proximity is the source of the signal in Alpha formats.
Sequence of Protein arginine N-methyltransferase 3 (O60678 whole entry): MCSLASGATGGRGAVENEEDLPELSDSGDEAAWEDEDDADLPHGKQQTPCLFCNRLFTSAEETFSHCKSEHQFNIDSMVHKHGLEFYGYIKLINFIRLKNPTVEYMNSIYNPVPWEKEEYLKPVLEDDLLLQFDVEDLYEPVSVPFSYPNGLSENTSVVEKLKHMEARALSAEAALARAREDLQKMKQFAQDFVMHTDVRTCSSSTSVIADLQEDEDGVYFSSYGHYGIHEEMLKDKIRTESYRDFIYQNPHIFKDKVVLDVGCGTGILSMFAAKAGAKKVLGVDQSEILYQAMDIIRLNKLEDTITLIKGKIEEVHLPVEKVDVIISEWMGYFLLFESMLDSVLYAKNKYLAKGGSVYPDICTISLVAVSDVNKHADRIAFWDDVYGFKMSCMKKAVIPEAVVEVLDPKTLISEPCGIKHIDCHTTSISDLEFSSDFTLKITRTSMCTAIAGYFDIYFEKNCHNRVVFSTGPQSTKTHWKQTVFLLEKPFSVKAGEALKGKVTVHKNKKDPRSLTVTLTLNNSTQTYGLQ
The target of data set [6] is T1, Histone-arginine methyltransferase CARM1 (Homo sapiens, UniProt Q86X55).
T1 sequence (Q86X55 whole entry): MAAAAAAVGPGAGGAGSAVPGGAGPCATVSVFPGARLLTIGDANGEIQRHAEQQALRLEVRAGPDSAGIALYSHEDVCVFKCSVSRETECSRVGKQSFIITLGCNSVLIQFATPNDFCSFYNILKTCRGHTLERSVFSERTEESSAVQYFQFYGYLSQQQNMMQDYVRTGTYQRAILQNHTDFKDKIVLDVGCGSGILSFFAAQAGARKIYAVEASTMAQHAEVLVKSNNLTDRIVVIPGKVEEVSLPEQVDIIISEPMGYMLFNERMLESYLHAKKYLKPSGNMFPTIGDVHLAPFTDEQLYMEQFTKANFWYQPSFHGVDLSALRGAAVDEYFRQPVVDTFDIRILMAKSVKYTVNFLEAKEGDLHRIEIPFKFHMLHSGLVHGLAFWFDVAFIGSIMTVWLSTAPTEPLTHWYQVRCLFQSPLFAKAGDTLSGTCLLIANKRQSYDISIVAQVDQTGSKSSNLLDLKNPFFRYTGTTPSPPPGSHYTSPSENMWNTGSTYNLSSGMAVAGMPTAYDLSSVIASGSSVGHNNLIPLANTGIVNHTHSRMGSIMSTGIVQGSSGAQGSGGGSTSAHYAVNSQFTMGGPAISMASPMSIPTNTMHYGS
In words: Inhibition of human N-terminal FLAG-tagged PRMT4 (2 to end residues) expressed in FreeStyle 293-F cells preincubated for 15 mins followed by substrate addition and measured after 1 hr by Alphalisa assay. It is filed as cell-based.

Data set [7] concerns the target Protein arginine N-methyltransferase 6 (Homo sapiens, UniProt Q96LA8). In words: Inhibition of human N-terminal His-tagged PRMT6 (2 to 375 residues) expressed in Escherichia coli preincubated for 15 mins followed by substrate addition and measured after 1 hr by Alphalisa assay.
In data set [8] the target is T2, Protein arginine N-methyltransferase 7 (Homo sapiens, UniProt Q9NVM4).
T2 sequence (Q9NVM4 whole entry): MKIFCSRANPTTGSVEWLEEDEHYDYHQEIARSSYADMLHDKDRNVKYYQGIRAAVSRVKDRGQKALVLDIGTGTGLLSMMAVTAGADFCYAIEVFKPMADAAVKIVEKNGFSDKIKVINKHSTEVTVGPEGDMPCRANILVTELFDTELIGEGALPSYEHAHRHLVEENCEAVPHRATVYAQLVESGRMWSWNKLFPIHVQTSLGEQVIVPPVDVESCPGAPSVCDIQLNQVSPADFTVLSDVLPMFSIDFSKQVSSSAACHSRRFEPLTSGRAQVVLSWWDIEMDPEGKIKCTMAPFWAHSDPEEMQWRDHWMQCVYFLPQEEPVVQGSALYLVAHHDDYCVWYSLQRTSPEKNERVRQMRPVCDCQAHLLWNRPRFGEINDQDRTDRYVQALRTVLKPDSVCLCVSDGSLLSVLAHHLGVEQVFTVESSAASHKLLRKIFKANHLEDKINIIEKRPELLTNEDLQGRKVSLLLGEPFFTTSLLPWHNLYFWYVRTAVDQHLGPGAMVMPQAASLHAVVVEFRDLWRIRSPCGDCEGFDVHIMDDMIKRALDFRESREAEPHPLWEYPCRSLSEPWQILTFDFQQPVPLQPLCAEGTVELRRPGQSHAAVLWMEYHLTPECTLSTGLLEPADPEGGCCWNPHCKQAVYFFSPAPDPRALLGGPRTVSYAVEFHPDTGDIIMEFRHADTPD
Put plainly: Inhibition of recombinant full length human N-terminal FLAG-tagged PRMT7 expressed in Sf9 insect cells preincubated for 15 mins followed by substrate and [3H]SAM addition and measured after 240 mins by microbeta method.

Data set [9] has as its target Protein arginine N-methyltransferase 8 (Homo sapiens, UniProt Q9NR22). In words: Inhibition of human N-terminal His/FLAG-tagged PRMT8 (61 to 394 residues) expressed in baculovirus infected Sf9 insect cells preincubated for 15 mins followed by substrate addition and measured after 1 hr by Alphalisa assay.
The nature of data set [10]: Aqueous solubility of the compound. The class given is physicochemical. Conditions: buffer.
Data set [11] in a line: Cmax in Sprague-Dawley rat at 10 mg/kg, po administered via gavage by LC-MS/MS analysis. The class given is ADME, organism-based. Also noted: dose 10 mg/kg, route oral. Conditions: in vivo.
Data set [12] in a line: Tmax in Sprague-Dawley rat at 10 mg/kg, po administered via gavage by LC-MS/MS analysis. It is filed as ADME, organism-based. Conditions: in vivo.
Data set [13] is described as follows: Elimination half life in Sprague-Dawley rat at 10 mg/kg, po administered via gavage by LC-MS/MS analysis. The class given is ADME, organism-based. Conditions: in vivo, read-out: beta t1/2 (converted).
Data set [14] can be described thus: AUC in Sprague-Dawley rat at 10 mg/kg, po administered via gavage by LC-MS/MS analysis. Conditions: in vivo. The class given is ADME, organism-based.
Data set [15] has as its system MV4-11. In words: Antitumor activity against human MV4-11 cells xenografted in Balb/c nude mouse assessed as tumor growth inhibition at 100 mg/kg, po administered once daily for 30 days relative to control. It is filed as functional. Conditions: MV4-11, po, 720 h, read-out: TGI. A general note: Xenograft models place foreign cells or tissue in a host animal.

A value given as a limit tells only on which side of the number the result lay.

Sequence of Protein arginine N-methyltransferase 6 (Q96LA8 whole entry, the tested form may be a part): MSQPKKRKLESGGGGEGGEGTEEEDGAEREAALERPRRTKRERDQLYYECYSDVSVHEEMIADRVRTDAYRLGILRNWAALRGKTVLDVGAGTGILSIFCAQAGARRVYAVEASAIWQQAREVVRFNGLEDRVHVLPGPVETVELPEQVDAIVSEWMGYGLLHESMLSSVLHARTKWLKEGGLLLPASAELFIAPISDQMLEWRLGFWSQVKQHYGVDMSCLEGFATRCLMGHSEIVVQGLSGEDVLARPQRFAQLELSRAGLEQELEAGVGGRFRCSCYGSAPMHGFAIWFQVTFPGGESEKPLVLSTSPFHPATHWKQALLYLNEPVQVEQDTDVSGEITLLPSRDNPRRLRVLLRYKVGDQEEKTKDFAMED
Sequence of Protein arginine N-methyltransferase 8 (Q9NR22 whole entry, the tested form may be a part): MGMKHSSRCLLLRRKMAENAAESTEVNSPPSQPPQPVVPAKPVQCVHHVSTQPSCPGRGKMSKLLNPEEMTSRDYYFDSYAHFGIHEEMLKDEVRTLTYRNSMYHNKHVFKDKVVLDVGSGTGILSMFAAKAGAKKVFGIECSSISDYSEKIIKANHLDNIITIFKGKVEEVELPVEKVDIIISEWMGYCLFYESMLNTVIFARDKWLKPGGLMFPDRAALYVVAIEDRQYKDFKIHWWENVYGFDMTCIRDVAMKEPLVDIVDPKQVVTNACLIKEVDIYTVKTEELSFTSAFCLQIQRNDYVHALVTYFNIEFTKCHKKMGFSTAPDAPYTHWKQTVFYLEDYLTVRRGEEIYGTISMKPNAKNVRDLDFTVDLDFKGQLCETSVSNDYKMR

Broadly, the IC50 is the midpoint of a concentration-inhibition curve. In general, GI50 refers to the concentration at which growth is held to half of that of the control. The low end stands for greater sensitivity of the cells, the high end for lower sensitivity of the cells. On to `O=C(NC[C@H](O)CN1CCc2ccccc2C1)c1ccc2c(c1)CCN(C(=O)c1ccc(Br)cc1)C2`, for which the IC50 is 0.0085 µM in [1]; more than 100 µM in data set [4]; more than 100 µM in data set [5]; more than 100 µM in data set [6]; more than 100 µM in [7]; more than 100 µM in data set [8]. In data set [9], this compound gave an IC50 of more than 100 µM. Also, the GI50 in data set [2] amounted to 0.025 µM; in data set [3] it was 0.018 µM. Besides, in [10], the solubility result is on record as “Insoluble”.
Usually Cmax stands for the maximum level reached in the sampled fluid or tissue. The term Tmax denotes the time from dosing to the highest level. The term AUC denotes the area under the concentration-time curve, a measure of exposure. A high value points to high exposure. Regarding `Cl.O=C(NC[C@H](O)CN1CCc2ccccc2C1)c1ccc2c(c1)CCN(C(=O)c1ccc(Br)cc1)C2`, in data set [11], the Cmax worked out at 32 ng/mL. Also, the Tmax in data set [12] was 0.583 h. Further, the half-life in data set [13] was 4.6 h. In addition, the AUC in [14] was determined as 168 ng·h/mL. Moreover, the solubility entry in data set [10] is on record as “Soluble”. Moreover, the inhibition in vivo at 100 mg/kg in data set [15] was 54%.
